{"source": "patent US20180140578A1", "about": "“METHODS AND COMPOSITIONS FOR THE DIAGNOSIS AND SELECTIVE TREATMENT OF CANCER” (Board of Regents of the University of Texas System, priority 2016, published 2018)", "key": {"[1]": {"tested_on": "H1155 RBM39 G268V knock-in cells", "assay": "Cell viability assay, RBM39 G268V knock-in", "assay_type": "cell-based, human", "description": "(§1) 12-point dose responses were performed on 96-well assay plates with cell plating (1500-4000 cell per well) on day 1, compound addition on day 2, and survival measurement on day 5. Compounds were diluted in DMSO before adding to the cells. Final DMSO concentration was 0.5%. Cell survival assay was performed using CellTiter-Glo Luminescent Cell Viability Assay kit (Promega) that measures cellular ATP content. Luminescence was recorded by EnVison multimode plate reader (Perkin Elmer). IC50 was determined with GraphPad Prism using baseline correction (by normalizing to DMSO control), the asymmetric (five parameter) equation and least squares fit.\n(§2) sgRNA targeting RBM39 (5′-[…]-3′) was cloned into the pSpCas9(BB)-2A-Puro (PX459) vector (Addgene 62988). For RBM39 G268V knock-in, 1 million HCT-116 or H1155 cells were nucleofected (using 4D-Nucleofector, Lonza) with PX459-RBM39 sgRNA and the single-stranded oligo 5′-[…] […] […] […]-3′ (SEQ ID NO: 13)."}, "[2]": {"tested_on": "HCT-116 RBM39 G268V knock-in cells", "assay": "Cell viability assay, RBM39 G268V knock-in", "assay_type": "cell-based, human", "description": "as §1, §2"}, "DCAF15−/− H1155 cells": {"tested_on": "DCAF15−/− H1155 cells", "assay": "Cell viability assay, DCAF15−/− cells", "assay_type": "cell-based, human", "conditions": "at concentrations as high as 50 μM", "description": "as §1\n(§3) Two independent guide RNAs targeting DDB1, DDA1, DCAF15 were cloned into PX459. 0.2 million H1155 RBM39-AcGFP cells were transfected with PX459 sgRNA constructs and selected with 2 μg/ml puromycin to enrich for transfected cells. […] Cells were then trypsinized and the expression of RBM39-AGFP was quantified with flow cytometry. H1155 cells transfected with DCAF15 guide RNA were sparsely plated on 10 cm^2 plates and clones were isolated. Genomic DNA sequence flanking the cut site were amplified and sequenced to identify DCAF15−/− clones."}, "[3]": {"tested_on": "H1155 cells transduced with DCAF15-3xFLAG cDNA", "assay": "Cell viability assay, DCAF15 overexpression", "assay_type": "cell-based, human", "conditions": "H1155 cells expressing higher than normal levels of DCAF15"}, "RBM39-AcGFP": {"molecular_target": "T1, RBM39-AcGFP (Homo sapiens, UniProt Q14498+Q66K64)", "T1 construct": "Homology directed repair facilitates tagging of endogenous RBM39 by AID, 3xFLAG, AcGFP, or Nanoluciferase; endogenous in cells; host or cells: H1155 RBM39-AcGFP knock-in cells", "assay": "CRISPR inactivation of DDB1, DDA1, DCAF15; RBM39-AcGFP by flow cytometry", "assay_type": "cell-based", "conditions": "H1155 RBM39-AcGFP cells", "description": "as §3"}, "RBM39-3xFLAG": {"molecular_target": "T2, RBM39-3xFLAG (Homo sapiens, UniProt Q14498+Q66K64)", "T2 construct": "expressed in transfected cells; host or cells: 293T", "assay": "In vivo polyubiquitination of RBM39", "assay_type": "cell-based", "conditions": "DCAF15 co-expressed; 293T cells", "description": "cDNAs encoding RBM39-3xFLAG, RBM39 G268V-3xFLAG, and DCAF15-V5 were cloned into the pCDNA3.1+vector. pCMV 8XHis Ub was a gift from William Kaelin (Dana Farber Cancer Institute). 0.4 million 293T cells were seeded per well on 6-well plates and allowed to attach overnight. 250 ng of pCMV 8XHis Ub, 500 ng of pCDNA3-DCAF15-V5, 10 ng of either pCDNA3-RBM39-3xFLAG or pCDNA3-RBM39 G268V-3xFLAG were transfected. […] Cells were lifted from the plates by pipetting, pelleted by centrifugation, and washed once with PBS. Purification of His-Ub tagged proteins was performed as described (5)."}, "DCAF15 and RBM39Δ150 [4]": {"molecular_target": "T3, DCAF15 and RBM39Δ150 (Homo sapiens, UniProt Q14498+Q66K64)", "T3 construct": "Full-length cDNAs encoding CUL4A, CUL4B, DCAF15, and DDB1 were cloned into pLVX IRES Puro; made in house; host or cells: RBM39Δ150: Sf9 (baculovirus); DCAF15-3xFLAG: anti-FLAG beads from HCT-116 or 293T cells stably expressing it", "T3 sequence (Q66K64 whole entry, stated change not applied)": "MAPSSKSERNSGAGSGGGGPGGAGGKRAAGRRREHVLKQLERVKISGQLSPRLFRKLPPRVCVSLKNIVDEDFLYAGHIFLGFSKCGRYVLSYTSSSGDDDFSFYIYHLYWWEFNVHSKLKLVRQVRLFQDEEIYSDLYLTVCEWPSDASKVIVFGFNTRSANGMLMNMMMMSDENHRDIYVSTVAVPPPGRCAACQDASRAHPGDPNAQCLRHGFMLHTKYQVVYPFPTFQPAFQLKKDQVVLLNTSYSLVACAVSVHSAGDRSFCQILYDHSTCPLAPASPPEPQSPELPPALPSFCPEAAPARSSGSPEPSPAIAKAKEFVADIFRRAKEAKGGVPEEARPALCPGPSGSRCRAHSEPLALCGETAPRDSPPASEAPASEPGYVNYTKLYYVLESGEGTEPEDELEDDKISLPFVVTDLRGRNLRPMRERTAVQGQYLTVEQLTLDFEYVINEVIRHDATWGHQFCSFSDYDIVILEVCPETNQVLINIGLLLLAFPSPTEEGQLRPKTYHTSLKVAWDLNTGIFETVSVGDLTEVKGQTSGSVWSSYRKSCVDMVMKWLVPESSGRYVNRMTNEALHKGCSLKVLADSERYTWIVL", "T3 sequence (Q14498 151-530, stated change not applied)": "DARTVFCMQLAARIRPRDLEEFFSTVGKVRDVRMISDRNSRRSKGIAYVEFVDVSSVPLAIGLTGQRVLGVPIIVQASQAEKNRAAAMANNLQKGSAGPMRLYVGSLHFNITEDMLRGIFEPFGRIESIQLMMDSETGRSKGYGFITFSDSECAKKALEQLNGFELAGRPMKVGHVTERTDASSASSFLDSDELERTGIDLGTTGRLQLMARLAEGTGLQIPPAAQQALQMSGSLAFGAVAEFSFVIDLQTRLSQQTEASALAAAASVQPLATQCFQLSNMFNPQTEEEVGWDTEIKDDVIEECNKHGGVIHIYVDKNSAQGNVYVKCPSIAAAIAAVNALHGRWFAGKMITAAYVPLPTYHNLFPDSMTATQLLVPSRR", "T3 sequence (Q16531 2-1140 partner)": "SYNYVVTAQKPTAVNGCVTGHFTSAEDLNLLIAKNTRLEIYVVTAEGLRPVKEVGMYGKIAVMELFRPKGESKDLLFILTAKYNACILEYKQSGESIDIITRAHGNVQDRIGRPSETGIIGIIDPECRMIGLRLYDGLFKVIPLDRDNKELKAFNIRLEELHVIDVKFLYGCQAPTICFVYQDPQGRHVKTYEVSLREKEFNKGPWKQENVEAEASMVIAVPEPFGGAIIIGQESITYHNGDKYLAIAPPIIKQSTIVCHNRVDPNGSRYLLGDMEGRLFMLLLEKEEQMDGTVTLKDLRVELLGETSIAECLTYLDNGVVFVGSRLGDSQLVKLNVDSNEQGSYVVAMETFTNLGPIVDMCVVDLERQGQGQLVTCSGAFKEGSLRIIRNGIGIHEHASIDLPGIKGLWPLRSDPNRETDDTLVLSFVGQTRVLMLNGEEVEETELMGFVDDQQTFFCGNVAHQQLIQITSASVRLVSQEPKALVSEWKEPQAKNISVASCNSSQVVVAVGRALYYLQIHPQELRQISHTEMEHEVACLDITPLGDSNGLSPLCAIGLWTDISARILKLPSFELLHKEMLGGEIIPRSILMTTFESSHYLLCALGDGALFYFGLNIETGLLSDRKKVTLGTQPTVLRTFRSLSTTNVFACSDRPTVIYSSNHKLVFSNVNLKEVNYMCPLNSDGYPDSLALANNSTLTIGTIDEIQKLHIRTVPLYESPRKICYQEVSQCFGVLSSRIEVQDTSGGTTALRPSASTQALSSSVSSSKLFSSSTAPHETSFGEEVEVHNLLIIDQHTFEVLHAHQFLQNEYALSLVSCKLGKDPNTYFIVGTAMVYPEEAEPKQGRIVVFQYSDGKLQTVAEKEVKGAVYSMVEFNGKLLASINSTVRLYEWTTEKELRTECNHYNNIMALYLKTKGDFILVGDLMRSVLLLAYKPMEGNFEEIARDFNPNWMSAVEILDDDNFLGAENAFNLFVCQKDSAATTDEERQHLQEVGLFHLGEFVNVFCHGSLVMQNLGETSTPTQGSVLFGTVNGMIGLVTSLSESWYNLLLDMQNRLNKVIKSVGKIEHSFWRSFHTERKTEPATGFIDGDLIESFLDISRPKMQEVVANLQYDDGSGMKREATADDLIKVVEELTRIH", "assay": "Mass spec quantification of indisulam in RBM39 DCAF15 complex", "assay_type": "binding", "conditions": "DCAF15 and wild type RBM39Δ150; 10 μM indisulam", "from_the_text": "(§4) RBM39-3xFLAG was immunopurified from HCT-116 cells expressing RBM39-3xFLAG (endogenous tag) using the cryomill procedure. DCAF15-3xFLAG was purified from 293T cells stably expressing DCAF15-3xFLAG through lentiviral transduction. […] Afterwards, beads were washed twice with 1×PBS, 0.1% NP40 and twice with 1×PBS. […] The tolbutamide internal standard (IS) was detected using the transition 269.1 to 169.9 (negative mode; M-H^−). […] The limit of quantitation (lowest quantifiable point on the standard curve with accuracy within 20% upon back calculation and at least 3-fold above background) for this method was 50 pg/ml."}, "DCAF15 and RBM39Δ150 [5]": {"molecular_target": "T4, DCAF15 and RBM39Δ150 (Homo sapiens, UniProt Q14498+Q66K64, P272S)", "T4 construct": "Full-length cDNAs encoding CUL4A, CUL4B, DCAF15, and DDB1 were cloned into pLVX IRES Puro; made in house; host or cells: RBM39Δ150: Sf9 (baculovirus); DCAF15-3xFLAG: anti-FLAG beads from HCT-116 or 293T cells stably expressing it", "T4 sequence (Q66K64 whole entry, stated change not applied)": "as the sequence (Q66K64 whole entry, stated change not applied) above", "T4 sequence (Q14498 151-530 P272S, stated change not applied)": "as the sequence (Q14498 151-530, stated change not applied) above, with P122S counted along it", "T4 sequence (Q16531 2-1140 partner, stated change not applied)": "as the sequence (Q16531 2-1140 partner) above", "assay": "Mass spec quantification of indisulam in RBM39 DCAF15 complex", "assay_type": "binding", "conditions": "DCAF15 and RBM39Δ150 P272S; 10 μM indisulam", "from_the_text": "as §4"}, "DCAF15 and RBM39Δ150 [6]": {"tested_on": "DCAF15 and RBM39Δ150", "assay": "Mass spec quantification of indisulam in RBM39 DCAF15 complex", "assay_type": "binding, human", "from_the_text": "as §4"}, "[7]": {"tested_on": "TRIM27 mRNA and RBM3 mRNA", "assay": "PCR validation of splicing changes", "assay_type": "cell-based, human", "description": "RNAs isolated from indisulam or siRNA treated cells were first treated with Turbo DNase (Life Technologies) to remove contaminating genomic DNA. After RNA cleanup with Quick-RNA MiniPrep kit (Zymo Research), 500 ng of total RNAs was converted into cDNAs with Multiscribe reverse transcriptase (Life Technologies). Exon skipping in TRIM27 was visualized by PCR amplification with 5′-[…]-3′ (SEQ ID NO: 3) and 5′-[…]-3′ (SEQ ID NO: 4) from cDNAs. […] Relative RNA levels were calculated based on 2^−ct method using Cyclophilin mRNA for normalization. The following primers were used for quantification of mRNA levels: […]"}, "[8]": {"tested_on": "tumors derived from parental HCT-116 cells", "conditions": "IV 25 mg/kg for 8 days; immune deficient mice; cited from earlier work"}}, "note": "pIC50: −log10 of the molar value.", "data": [{"compound": "NS(=O)(=O)c1ccc(S(=O)(=O)Nc2cccc3c(Cl)c[nH]c23)cc1", "note": "[Indisulam, indisulam]", "values": [{"measurement": "effect of G268V editing on indisulam sensitivity", "setting": "[1]", "value": "indisulam resistance"}, {"measurement": "pIC50", "setting": "[2]; Homo sapiens, HCT-116, two independent RBM39 G268V knock-in HCT-116 clones", "value": 4.41}, {"measurement": "pIC50", "setting": "[2]; two independent RBM39 G268V knock-in HCT-116 clones", "value": 4.28}, {"measurement": "sensitivity of DCAF15−/− cells", "setting": "DCAF15−/− H1155 cells", "value": "insensitive"}, {"measurement": "sensitivity vs mock treated cells", "setting": "[3]", "value": "more sensitive"}, {"measurement": "RBM39-AcGFP after indisulam treatment", "setting": "RBM39-AcGFP", "value": "degraded"}, {"measurement": "RBM39 ubiquitination", "setting": "RBM39-3xFLAG", "value": "increased RBM39 ubiquitination"}, {"measurement": "amount of indisulam in complex (LC-MS)", "setting": "DCAF15 and RBM39Δ150 [4]", "value": "highest levels of indisulam"}, {"measurement": "amount of indisulam in complex (LC-MS)", "setting": "DCAF15 and RBM39Δ150 [5]", "value": "lower levels of indisulam"}, {"measurement": "amount of indisulam in complex (LC-MS)", "setting": "DCAF15 and RBM39Δ150 [6]; DCAF15 and M265L or E271Q variants of RBM39Δ150", "value": "no indisulam was detected"}, {"measurement": "amount of indisulam (LC-MS)", "setting": "DCAF15 and RBM39Δ150 [6]; either DCAF15 or RBM39 alone", "value": "no indisulam was identified"}, {"measurement": "splicing of TRIM27 mRNA (RT-PCR)", "setting": "[7]", "value": "dose-dependent exon skipping"}, {"measurement": "splicing of RBM3 mRNA (RT-PCR)", "setting": "[7]; indisulam dose-dependent", "value": "intron retention"}, {"measurement": "tumor response (previously shown)", "setting": "[8]", "value": "regression"}]}]}
